We go through 1 molecule from patent publication US9278982B2, “Targeting human thymidylate kinase induces DNA repair toxicity in malignant tumor cells” (NATIONAL YANG-MING UNIVERSITY, priority 2010, dated 2016).

Assay [1] has as its target T1, dUTPase (Homo sapiens, UniProt P33316).
T1 construct: made in house; host or cells: E. coli JM109 (pGEX-2T-dUTPase (WT))
In words: dUTPase activity assay. The assay is classed as biochemical. Particulars: 0.1 μg purified GST-dUTPase, 10 min incubation with YMU1. Here is the method: FIG. 19. No effect of YMU1 on dUTPase activity. 0.1 μg of purified GST-dUTPase protein was incubated with the indicated concentration of YMU1 for 10 min prior to action using dUTPase activity analysis.
For detecting dUTPase activity, the EnzChek Pyrophosphate Assay kit (Invitrogen) was used for measuring the dUTPase activity following the manufacturer's instruction. […] Reaction mixtures were incubated at 37° C. for 3 minutes. Samples (15 μl each) were added to the reaction mixtures [715 μl dH2O, 50 μl 20× reaction buffer, 200 μl MESG substrate, 1 U purine nucleoside phosphorylase, 0.03 U inorganic pyrophosphatase] and incubated at 22° C. for 45 minutes. The absorbance at 360 nm was measured using an ELISA plate reader.

The subject of assay [2] is IMR-90. In words: Doxorubicin sensitization, MTS viability assay. The format is cell-based, human. Particulars: doxorubicin sensitivity, YMU1 vs vehicle. Here is the method:
(§1) FIG. 16. In vitro and in vivo effect of YMU1 on doxorubicin sensitization. (A) A panel of cell lines were pre-treated with vehicle, YMU1 (compound 21), D6 (ethyl 4-(2-chloroacetyl)piperazine-1-carboxylate) or D7 (compound 28) for 3 days and were exposed to different concentration of doxorubicin for 4 h. […] The enhancement (fold) of doxorubicin sensitivity in each cell line was calculated. Data represent mean±s.d., n=3; each experiment was quadruplex. Inset indicates the IC50 value of doxorubicin in various cell lines. […] Following overnight culture, cells were refreshed with growth medium. After 14 days of culture, colonies were fixed, stained by crystal violet and counted. (C) HCT-116 p53^−/− cells were subcutaneously implanted in the right flank of Balb/c nude mice (each experimental group n=8). Arrow indicated the time of stopping drug treatment. The tumor volume was estimated as described in Methods of the Invention section. (D) After 2 weeks recovered from treatment, mice were sacrificed for tumor weight measurement. Data represent mean±s.e.m; **, P<0.01 by a two-tailed Student's t-test. (E) Ki 67 proliferation marker staining of tumor shown in left panel. Scale bar, 50 μm. (F) Model of doxorubicin sensitization by YMU1 in malignant cancer cells. Both R2/R1 and TMPK are recruited to the site of doxorubicin-induced double-strand breaks, where dATP, dGTP, dCTP, dTTP and dUTP are site-specific synthesized. Inhibition of TMPK decreases dTTP formation at DNA damage sites, causing futile DNA repair due to dUTP incorporation.
(§2) Next, various human cancer cell lines were treated with YMU1, D6 or D7 for 72 h to test the potential of TMPK inhibitor in doxorubicin sensitization. After exposure to different concentration of doxorubicin for 4 h, cells were refreshed for viability analysis after 2 days and the IC50 value for doxorubicin in each of the cell lines was determined (FIG. 16A and Table 2).
(§3) Cells plated into a 96-well plate (10^3 cells/well) were treated and cell viability was measured by MTS assay (Promega) (Cory et al., 1991). An annexin V-fluorescein isothiocyanate (FITC) apoptosis kit (Calbiochem) was used to detect apoptosis. The cell cycle analysis was performed by staining cells with propidium iodide (PI) for fluorescence-activated cell sorter (FACS) analysis with CellQuest software.
For orientation: Tetrazolium assays rely on reduction of a dye to a coloured formazan, in cell work by metabolically active cells.

The test system of assay [3] is HMEC. As to the kind of experiment: Doxorubicin sensitization, MTS viability assay. The assay is classed as cell-based, human. Particulars: doxorubicin sensitivity, YMU1 vs vehicle. Here is the method: as §1, §2, §3
The subject of assay [4] is U2OS. As to the kind of experiment: Doxorubicin sensitization, MTS viability assay. Particulars: doxorubicin sensitivity, YMU1 vs vehicle. The assay is classed as cell-based, human. Here is the method:
as §1, §2, §3

For assay [5], the system named is HCT-116p53+/+. As to the kind of experiment: Doxorubicin sensitization, MTS viability assay. The format is cell-based, human. Particulars: doxorubicin sensitivity, YMU1 vs vehicle. Here is the method: as §1, §2, §3
Assay [6] concerns Capan1. In words: Doxorubicin sensitization, MTS viability assay. The format is cell-based, human. Particulars: doxorubicin sensitivity, YMU1 vs vehicle. Here is the method:
as §1, §2, §3

Assay [7] deals with H1299. In words: Doxorubicin sensitization, MTS viability assay. Particulars: doxorubicin sensitivity, YMU1 vs vehicle. The format is cell-based, human. Here is the method: as §1, §2, §3
The subject of assay [8] is HCT-116p53−/−. As to the kind of experiment: Doxorubicin sensitization, MTS viability assay. The assay is classed as cell-based, human. Particulars: doxorubicin sensitivity, YMU1 vs vehicle. Here is the method:
as §1, §2, §3

Assay [9] concerns SaoS2. In words: Doxorubicin sensitization, MTS viability assay. The assay is classed as cell-based, human. Particulars: doxorubicin sensitivity, YMU1 vs vehicle. Here is the method: as §1, §2, §3
The test system of assay [10] is H184B5F5/M10. In words: Doxorubicin sensitization, MTS viability assay. The assay is classed as cell-based, human. Particulars: doxorubicin sensitivity, YMU1 vs vehicle. Here is the method:
as §1, §2, §3

The subject of assay [11] is HREC. In words: Doxorubicin sensitization, MTS viability assay. The assay is classed as cell-based, human. Particulars: doxorubicin sensitivity, YMU1 vs vehicle. Here is the method: as §1, §2, §3
The test system of assay [12] is MCF-10A. In words: Doxorubicin sensitization, MTS viability assay. The assay is classed as cell-based, human. Particulars: doxorubicin sensitivity, YMU1 vs vehicle. Here is the method: as §1, §2, §3
Assay [13] has as its system HCC1037. As to the kind of experiment: Doxorubicin sensitization, MTS viability assay. The format is cell-based, human. Particulars: doxorubicin sensitivity, YMU1 vs vehicle. Here is the method:
as §1, §2, §3

The subject of assay [14] is MDA-MB468. As to the kind of experiment: Doxorubicin sensitization, MTS viability assay. Particulars: doxorubicin sensitivity, YMU1 vs vehicle. The format is cell-based, human. Here is the method:
as §1, §2, §3

In assay [15] the test system is MDA-MB231. In words: Doxorubicin sensitization, MTS viability assay. The assay is classed as cell-based, human. Here is the method:
as §1, §2, §3

Assay [16] has as its system HT-29. As to the kind of experiment: Doxorubicin sensitization, MTS viability assay. Particulars: doxorubicin sensitivity, YMU1 vs vehicle. The assay is classed as cell-based, human. Here is the method:
as §1, §2, §3

Assay [17] relates to CL-1-0. In words: Doxorubicin sensitization, MTS viability assay. The format is cell-based, human. Particulars: doxorubicin sensitivity, YMU1 vs vehicle. Here is the method: as §1, §2, §3
In assay [18] the test system is panel of cell lines. As to the kind of experiment: Doxorubicin sensitization, MTS viability assay, summary over the panel of cell lines. The assay is classed as cell-based, human. Here is the method: as §1, §2
The ability of YMU1 to sensitize non-tumorigenic mammary cycling H184B5F5/M10, MCF10A, primary human mammary epithelial (HMEC) and primary renal epithelial (HREC) cells and IMR-90 embryonic lung fibroblasts to doxorubicin was much weaker.
as §3

T1 sequence (P33316 1-164 isoform P33316-2): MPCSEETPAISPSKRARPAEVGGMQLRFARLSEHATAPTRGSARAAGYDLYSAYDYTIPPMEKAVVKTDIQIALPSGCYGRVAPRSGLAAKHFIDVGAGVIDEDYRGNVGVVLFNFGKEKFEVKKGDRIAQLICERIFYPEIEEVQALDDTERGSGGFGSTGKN

As to `CCOC(=O)N1CCN(C(=O)Cn2sc3nc(C)cc(C)c3c2=O)CC1` [compound 21, Ethyl 4-(2-(4,6-dimethyl-3-oxoisothiazolo[5,4-b]pyridin-2(3H)-yl)acetyl) piperazine-1-carboxylate], the “inhibition of dUTPase” value in [1] is recorded as “unable to inhibit dUTPase”. The Enhancement fold in [2] was 1.0 fold; in [3] it was 1.0 fold; in assay [4] it was 4.0 fold; in assay [5] it was 6.3 fold; in assay [6] it was 1.0 fold; in [7], 12.2 fold. Further, the Enhancement fold in assay [8] stood at 6.8 fold; in assay [9], 35.1 fold; in [10], 1.7 fold; in assay [11], 1.0 fold; in assay [12], 1.2 fold; in assay [13], 0.8 fold. Also, the Enhancement fold in [14] was 27.8 fold; in assay [15] (MDA-MB231, doxorubicin sensitivity, YMU1 vs vehicle), 31.0 fold; in assay [16], 3.4 fold; in [17] it was 6.0 fold. Besides, in assay [15] (MDA-MB231 cell treatment, compound at 2 μM), the “enhancement on doxorubicin sensitization” value turned out to be 30 fold. The “ability to sensitize to doxorubicin” value in assay [18] (non-tumorigenic H184B5F5/M10, MCF10A, HMEC, HREC cells and IMR-90 fibroblasts) is “much weaker”. In addition, in [18] (two BRCA 1/2 deficient tumor cells defective in homologous recombination repair), the doxorubicin sensitization entry is recorded as “not responsive”.
